Test results: US7214766B2 (priority 1998, dated 2007)
Like-named read-outs stand apart in the source and are kept apart here. No end group written: not given here.

Tests used:
[1] = system: proteases present in whole cell extract (WCE); assay: Protection of Magainin 2 from degradation by WCE (Magainin 2 mixed with Rev4); format: in vitro ADME, Kentucky 14 tobacco; conditions: in Rev4 + Magainin 2 Mix
Method: (§1) Whole cell extract (WCE) was prepared by grinding one gram of Kentucky 14 tobacco leaf tissue in liquid nitrogen, followed by extraction with 3 mL of 100 mM Tris-HCl buffer, pH 7.5, 50 mM NaCl. The mixture was clarified by spinning in a microcentrifuge (14,000 r.p.m., 5 minutes). The supernatant (WCE) was kept frozen as aliquots at −80° C. until required for an assay. Fifty micrograms of each peptide was incubated with different amounts of WCE in 50 mM Tris-HCl buffer, pH 7.5, total volume 50 microliters, for one hour at 37° C. The reaction was stopped by adding 1% trifluoroacetic acid (TFA). A sample of the reaction mixture (20 μL) was injected onto a Vydac C4 column (4.6×250 mm) in a Waters HPLC system with 515 pumps, 486 detector and Millenium software. The sample was eluted with a gradient of 0.1% TFA in water to 60% acetonitrile in 0.1% TFA. The area of the peak corresponding to the undigested peptide was integrated and compared with the equivalent peak from a 0% WCE control.
(§2) Assays for WCE protease degradation were performed as described in Example 8 except that one of the samples represented Magainin 2 that was mixed with Rev4 before the addition of WCE. The amounts of Magainin 2 and Rev4 remaining in the mixture were determined by HPLC as described for Examples 7 and 8.

[2] = Stability of peptides to proteases in whole cell extract (WCE), HPLC; format: in vitro ADME, Kentucky 14 tobacco; conditions: other tissue homogenate, peptide alone, read-out: % Peptide Remaining Intact after 1 Hr.
Method: as §1, §2

[3] = system: proteases present in whole cell extract (WCE); assay: as above; format: in vitro ADME, Kentucky 14 tobacco; conditions: peptide alone
Method: as §1, §2

E. coli = conditions: Falla and Hancock 1997; cited from earlier work
Candida albicans = conditions: Falla and Hancock 1997; cited from earlier work
Staphylococcus aureus = conditions: Falla and Hancock 1997; cited from earlier work
Pseudomonas aeruginosa = conditions: Falla and Hancock 1997; cited from earlier work
Peronospora tabacina = assay: Tobacco blue mold spore germination assay; format: cell-based; conditions: for % Germination (mean +/− sem): final concentration of 2 μg/mL, control 76.6 +/− 11.2; for % Control: germination as % of no-peptide control, 2 μg/mL; for antifungal activity (in words): refers to EXAMPLE 12
Method: Tobacco blue mold (Peronospora tabacina) was used to compare the antifungal activity of Rev4 with that of MYP30. Spores of Peronospora tabacina were harvested from infected tobacco leaf with sterile water and washed three times. The spore suspension was diluted to 2,000 spores per mL. Peptide solution (2 μL) was added to spore suspension (48 μL) in a 96-well microtiter plate. After incubation in the dark at room temperature for 24 hours, the number of germinated spores was determined microscopically.
The peptides described as SEQ. ID Nos. 4, 5, 6, 7 and 8 in Examples 1, 3, 4, 5 and 6 were tested for antifungal activity as described in Example 11.

Chymotrypsin = target: T1, Chymotrypsin (Bos taurus, UniProt P00766); assay: Inhibition of protease digestion of fluorescent labeled casein: chymotrypsin; format: biochemical; conditions: for Chymotrypsin Activity (Fluorescence Units) Mean: no-peptide control 375
T1 construct: purchased
Method: (§3) The ability of Rev4 to inhibit four different classes of proteases was tested using fluorescent labeled casein as substrate under the following conditions:
(§4) Each protease was incubated with substrate (5 μg/mL fluorescent labeled casein; Molecular Probes Inc., Eugene, Oreg.) and peptide in a total volume of 200 μL in a 96-well microtiter plate. Before use, papain was activated with cysteine (Arnon, 1970, Methods in Enzymology 19:226–44). After incubation at room temperature for one hour, fluorescence due to casein digestion was measured in a Luminescence Spectrometer (LS50B, Perkin Elmer Ltd., England) with an excitation wavelength of 505 nm and an emission wavelength of 513 nm. The blank control contained the substrate, buffer and peptide but lacked the protease.
The peptides described in EXAMPLE 12 were tested for their effects on the action of chymotrypsin on casein using the methods described in EXAMPLE 10.

[4] = system: Verticillium dahliae racel; assay: Minimum concentration to completely inhibit spore germination, Verticillium; format: cell-based; conditions: 5,000 spores per mL, triplicate
Description: (§5) The antifungal activity of Rev4 and related peptides was also compared using two tomato pathogens, Verticillium dahliae racel and Alternaria alternata f.sp. lycopersici. Spores were harvested from pure cultures grown on V8 medium, diluted to 5,000 spores per mL, and tested against dilution series of peptides in 96-well plates as described in U.S. Pat. No. 5,424,395.

[5] = system: Alternaria alternata f.sp. lycopersici; assay: Minimum concentration to completely inhibit spore germination, Alternaria; format: cell-based; conditions: 5,000 spores per mL, triplicate
Description: as §5

Papain = target: T2, Papain (Carica papaya, UniProt P00784); assay: Inhibition of protease digestion of fluorescent labeled casein: papain; format: biochemical; conditions: pH 6.2, papain 0.01 mg/mL, pH6.2, read-out: % Inhibition of Proteolysis
T2 construct: purchased
T2 sequence (P00784 134-345): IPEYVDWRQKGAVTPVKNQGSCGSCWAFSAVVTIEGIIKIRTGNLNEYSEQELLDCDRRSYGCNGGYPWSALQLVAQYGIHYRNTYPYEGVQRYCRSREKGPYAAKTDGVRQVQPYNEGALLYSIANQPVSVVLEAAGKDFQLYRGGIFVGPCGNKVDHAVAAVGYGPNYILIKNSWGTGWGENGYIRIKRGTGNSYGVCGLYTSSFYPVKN
Method: as §3, §4

Pepsin = target: T3, Pepsin (Sus scrofa, UniProt P00791); assay: Inhibition of protease digestion of fluorescent labeled casein: pepsin; format: biochemical; conditions: pH 2, pepsin 0.01 mg/mL, pH2.0, read-out: % Inhibition of Proteolysis
T3 construct: purchased
T3 sequence (P00791 60-385): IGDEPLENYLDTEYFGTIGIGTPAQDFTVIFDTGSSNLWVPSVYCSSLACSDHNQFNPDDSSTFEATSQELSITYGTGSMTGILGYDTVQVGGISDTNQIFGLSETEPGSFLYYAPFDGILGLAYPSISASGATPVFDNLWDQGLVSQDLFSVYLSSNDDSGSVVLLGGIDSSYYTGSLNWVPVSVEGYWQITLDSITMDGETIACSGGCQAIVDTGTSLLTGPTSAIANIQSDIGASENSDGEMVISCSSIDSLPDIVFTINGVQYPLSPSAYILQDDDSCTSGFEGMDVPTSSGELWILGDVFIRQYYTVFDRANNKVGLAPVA
Method: as §3, §4

[6] = system: proteases in the intercellular fluid of plant leaves; conditions: cited from earlier work

H-GIGKFLHSAKKFGKAFVGEIMNS-OH [Magainin 2, reference compound]
% Peptide Remaining Intact after 1 Hr. ([1]; 15% WCE): 89.7%
% Peptide Remaining Intact after 1 Hr. ([1]; 30% WCE): 87.6%
% Peptide Remaining Intact after 1 Hr. ([1]; 60% WCE): 73.1%
% Peptide Remaining Intact after 1 Hr. ([1]; 90% WCE): 56.3%
remaining at 1 h, 1 mg/mL ([2]; pH 7.5, 15% WCE): 10.9%
remaining at 1 h, 1 mg/mL ([2]; pH 7.5, 30% WCE): 0.3%
remaining at 1 h, 1 mg/mL ([2]; pH 7.5, 90% WCE): 0.4%
% Peptide Remaining Intact after 1 Hr. ([3]; 45% WCE): 0.4%
% Peptide Remaining Intact after 1 Hr. ([3]; 60% WCE): 0.3%

ILKKWPWWPWRR [CP-11, synthetic peptide based on indolicidin (Falla and Hancock)]
activity against E. coli relative to indolicidin (in words) (E. coli): better activity
activity against Candida albicans relative to indolicidin (in words) (Candida albicans): better activity
activity against Staphylococcus aureus relative to indolicidin (in words) (Staphylococcus aureus): reduced activity
activity against Pseudomonas aeruginosa relative to indolicidin (in words) (Pseudomonas aeruginosa): better activity

Ile Leu Lys Gly Phe Pro Gly Phe Pro Arg Arg Lys (ILKGFPGFPRRK-NH2) [SEQ. ID NO. 8, derivative of indolicidin in which Trp residues were replaced by Phe and a Pro residue was deleted]
% Germination (mean +/− sem) (Peronospora tabacina): 17.3 +/− 3.5%
% Control (Peronospora tabacina): 23%
antifungal activity (in words) (Peronospora tabacina): had retained antifungal activity
protection of fluorescent-labeled casein from chymotrypsin (in words) (Chymotrypsin): did not have this protective effect
Chymotrypsin Activity (Fluorescence Units) Mean (Chymotrypsin; peptide 5 μg/mL): 385 Fluorescence Units
Chymotrypsin Activity (Fluorescence Units) Mean (Chymotrypsin; peptide 20 μg/mL): 321 Fluorescence Units

Ile Leu Pro Phe Lys Phe Pro Phe Phe Pro Phe Arg Arg (ILPFKFPFFPFRR-NH2) [SEQ. ID NO. 7, indolicidin in which the Trp residues were replaced with Phe]
minimum concentration required to completely inhibit spore germination for at least 48 hours [4]: 50 µg/mL
% Germination (mean +/− sem) (Peronospora tabacina): 8.8 +/− 5.4%
% Control (Peronospora tabacina): 11%
antifungal activity (in words) (Peronospora tabacina): had retained antifungal activity
minimum concentration required to completely inhibit spore germination for at least 48 hours [5]: 100 µg/mL
protection of fluorescent-labeled casein from chymotrypsin (in words) (Chymotrypsin): did not have this protective effect
Chymotrypsin Activity (Fluorescence Units) Mean (Chymotrypsin; peptide 5 μg/mL): 386 Fluorescence Units
Chymotrypsin Activity (Fluorescence Units) Mean (Chymotrypsin; peptide 20 μg/mL): 385 Fluorescence Units

RRWPWWPWKWPLI-NH2 [Rev4, Arg Arg Trp Pro Trp Trp Pro Trp Lys Trp Pro Leu Ile]
inhibition at 2.5 µg/mL (Papain; Rev4 2.5 μg/ml): 29%
inhibition at 5 µg/mL (Papain; Rev4 5 μg/ml): 72%
inhibition at 10 µg/mL (Papain; Rev4 10 μg/ml): 93%
inhibition at 20 µg/mL (Papain; Rev4 20 μg/ml): 99%
inhibition at 25 µg/mL (Pepsin; Rev4 25 μg/ml): 3%
inhibition at 50 µg/mL (Pepsin; Rev4 50 μg/ml): 0%
inhibition at 100 µg/mL (Pepsin; Rev4 100 μg/ml): 0%
inhibition at 2.5 µg/mL (Chymotrypsin; pH 8, Rev4 2.5 μg/ml, chymotrypsin 0.01 mg/mL, pH8.0, read-out: % Inhibition of Proteolysis): 16%
inhibition at 5 µg/mL (Chymotrypsin; pH 8, Rev4 5 μg/ml, chymotrypsin 0.01 mg/mL, pH8.0, read-out: % Inhibition of Proteolysis): 42%
inhibition at 10 µg/mL (Chymotrypsin; pH 8, Rev4 10 μg/ml, chymotrypsin 0.01 mg/mL, pH8.0, read-out: % Inhibition of Proteolysis): 75%
inhibition at 20 µg/mL (Chymotrypsin; pH 8, Rev4 20 μg/ml, chymotrypsin 0.01 mg/mL, pH8.0, read-out: % Inhibition of Proteolysis): 97%

RRWPWWPWKWPLIGGGYDPAPPPPPP [SEQ. ID NO. 6, Rev4 with a C-terminal extension of 13 amino acids]
minimum concentration required to completely inhibit spore germination for at least 48 hours [4]: 23 µg/mL
% Germination (mean +/− sem) (Peronospora tabacina): 5.7 +/− 9.8%
% Control (Peronospora tabacina): 7%
minimum concentration required to completely inhibit spore germination for at least 48 hours [5]: 50 µg/mL
protection of fluorescent-labeled casein from chymotrypsin (in words) (Chymotrypsin): protected fluorescent-labeled casein from the action of chymotrypsin
Chymotrypsin Activity (Fluorescence Units) Mean (Chymotrypsin; peptide 5 μg/mL): 212 Fluorescence Units
Chymotrypsin Activity (Fluorescence Units) Mean (Chymotrypsin; peptide 20 μg/mL): 45 Fluorescence Units

Ser Arg Arg Trp Pro Trp Trp Pro Trp Lys Trp Pro Leu Ile (SRRWPWWPWKWPLI-OH) [SEQ. ID NO. 5, analog of Rev4 in which an extra Ser was added to the N-terminus]
minimum concentration required to completely inhibit spore germination for at least 48 hours [4]: 50 µg/mL
% Germination (mean +/− sem) (Peronospora tabacina): 6.8 +/− 6.3%
% Control (Peronospora tabacina): 9%
protection of fluorescent-labeled casein from chymotrypsin (in words) (Chymotrypsin): protected fluorescent-labeled casein from the action of chymotrypsin
Chymotrypsin Activity (Fluorescence Units) Mean (Chymotrypsin; peptide 5 μg/mL): 162 Fluorescence Units
Chymotrypsin Activity (Fluorescence Units) Mean (Chymotrypsin; peptide 20 μg/mL): 44 Fluorescence Units

cecropin B: antimicrobial peptide cecropin B (KWKVFKKIEKMGRNIRNGIVKAGPAIAVLGEAKAL; ends and bridges not checked; UniProt P01508 27-61, looked up)
degradation / stability against proteases of plant intercellular fluid (in words) [6]: rapidly degraded
